≈ marks a conversion by molar mass, not a printed value. Where “and” joins values, the source holds several entries; their conditions need not be identical. Equal entries are not always repeated.

Data set [1] relates to E. faecalis ATCC 29212. The class given is cell-based, Enterococcus faecalis. Conditions: ATCC 29212, Mueller-Hinton broth, 24 hr, 37°C, without replication; for MIC E. faecalis in the presence of 4% bovine serum albumin: 4% BSA added, macrobroth dilution; for MIC E. faecalis: CLSI macrobroth dilution, 5 x 10^5 CFU/mL. An outline of the steps:
(§1)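 Twofold dilution series in CAMHB; inoculum ≈5 x 10^5 CFU/mL checked by colony counts; 24 hr, 37°C, ambient air; MIC by visual reading of tubes.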
(In general: Broth dilution looks for growth in wells or tubes with falling amounts of substance.)

Data set [2] has as its system A. baumannii CAN-ICU 63169. The class given is cell-based, Acinetobacter baumannii. Conditions: CAN-ICU 63169, Mueller-Hinton broth, 24 hr, 37°C, without replication; for MIC A. baumannii in the presence of 4% bovine serum albumin: 4% BSA added, macrobroth dilution; for MIC A. baumannii: CLSI macrobroth dilution, 5 x 10^5 CFU/mL. An outline of the steps: as §1
Data set [3] has as its system MRSE CAN-ICU 61589. The class given is cell-based, methicillin-resistant S. epidermidis. Conditions: CAN-ICU 61589, Mueller-Hinton broth, 24 hr, 37°C, without replication; for MIC MRSE in the presence of 4% bovine serum albumin: 4% BSA added, macrobroth dilution; for MIC MRSE: CLSI macrobroth dilution, 5 x 10^5 CFU/mL. An outline of the steps: as §1
Data set [4] has as its system K.pneumoniae ATCC 13883. It counts as cell-based, Klebsiella pneumoniae. Conditions: ATCC 13883, Mueller-Hinton broth, 24 hr, 37°C, without replication; for MIC K.pneumoniae in the presence of 4% bovine serum albumin: 4% BSA added, macrobroth dilution; for MIC K.pneumoniae: CLSI macrobroth dilution, 5 x 10^5 CFU/mL. Put shortly: as §1
Data set [5] relates to MRSA ATCC 33592. The class given is cell-based, methicillin-resistant S. aureus. Conditions: ATCC 33592, Mueller-Hinton broth, 24 hr, 37°C, without replication; for MIC MRSA in the presence of 4% bovine serum albumin: 4% BSA added, macrobroth dilution; for MIC MRSA: CLSI macrobroth dilution, 5 x 10^5 CFU/mL. Put shortly: as §1
For data set [6], the system named is S.aureus ATCC 29213. It counts as cell-based, Staphylococcus aureus. Conditions: ATCC 29213, Mueller-Hinton broth, 24 hr, 37°C, without replication; for MIC S.aureus in the presence of 4% bovine serum albumin: 4% BSA added, macrobroth dilution; for MIC S.aureus: CLSI macrobroth dilution, 5 x 10^5 CFU/mL. Put shortly:
as §1

In data set [7] the test system is ovine erythrocytes. Nature of the data set: Haemolytic assay. It counts as cell-based, sheep. Conditions: ovine erythrocytes in Tris buffered saline, 30 minutes, absorbance of supernatant at 540 nm. An outline of the steps: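 Washed sheep erythrocytes in Tris-buffered saline exposed to compound (50 μg/mL–1 mg/mL; final 4.08 x 10^8 cells/mL) for 30 min. After centrifugation, supernatant absorbance at 540 nm gave % haemolysis; 0.5% ammonium chloride as positive control.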

Data set [8] deals with S. maltophilia CAN-ICU 62584. The class given is cell-based, Stenotrophomonas maltophilia. Conditions: CAN-ICU 62584, Mueller-Hinton broth, 24 hr, 37°C, without replication; for MIC S. maltophilia in the presence of 4% bovine serum albumin: 4% BSA added, macrobroth dilution; for MIC S. maltophilia: CLSI macrobroth dilution, 5 x 10^5 CFU/mL. An outline of the steps:
as §1

The test system of data set [9] is E. faecium ATCC 27270. The class given is cell-based. Conditions: ATCC 27270, Mueller-Hinton broth, 24 hr, 37°C, without replication; for MIC E. faecium in the presence of 4% bovine serum albumin: 4% BSA added, macrobroth dilution; for MIC E. faecium: CLSI macrobroth dilution, 5 x 10^5 CFU/mL. An outline of the steps: as §1
Data set [10] has as its system E.coli CAN-ICU 61714. It counts as cell-based, Escherichia coli. Conditions: CAN-ICU 61714, Mueller-Hinton broth, 24 hr, 37°C, without replication; for MIC E.coli in the presence of 4% bovine serum albumin: 4% BSA added, macrobroth dilution; for MIC E.coli: CLSI macrobroth dilution, 5 x 10^5 CFU/mL. An outline of the steps:
as §1

Data set [11] concerns E.coli CAN-ICU 63074. It counts as cell-based, Escherichia coli. Conditions: CAN-ICU 63074, Mueller-Hinton broth, 24 hr, 37°C, without replication; for MIC E.coli in the presence of 4% bovine serum albumin: 4% BSA added, macrobroth dilution; for MIC E.coli: CLSI macrobroth dilution, 5 x 10^5 CFU/mL. An outline of the steps:
as §1

The subject of data set [12] is E.coli ATCC 25922. The class given is cell-based, Escherichia coli. Conditions: ATCC 25922, Mueller-Hinton broth, 24 hr, 37°C, without replication; for MIC E.coli in the presence of 4% bovine serum albumin: 4% BSA added, macrobroth dilution; for MIC E.coli: CLSI macrobroth dilution, 5 x 10^5 CFU/mL. An outline of the steps: as §1

Take `NCCCCN(CC(N)=O)C(=O)CN(CCCCN)C(=O)CN(CCCCN)C(=O)CCC(F)(F)C(F)(F)C(F)(F)C(F)(F)C(F)(F)C(F)(F)C(F)(F)C(F)(F)F` [F11-NlysNlysNlys]: in data set [1], the “MIC E. faecalis in the presence of 4% bovine serum albumin” value is recorded as 512 µg/mL and the “MIC E. faecalis” value came to 64 µg/mL (≈ 73.1 µM). In addition, in data set [2], the “MIC A. baumannii in the presence of 4% bovine serum albumin” value is above 512 µg/mL and the “MIC A. baumannii” value is above 512 µg/mL. Moreover, in data set [3], the “MIC MRSE in the presence of 4% bovine serum albumin” value is on record as 256 µg/mL and the “MIC MRSE” value was 32 µg/mL (≈ 36.5 µM). In data set [4], the “MIC K.pneumoniae in the presence of 4% bovine serum albumin” value is above 512 µg/mL and the “MIC K.pneumoniae” value is reported as above 512 µg/mL. Further, in data set [5], the “MIC MRSA in the presence of 4% bovine serum albumin” value worked out at 256 µg/mL and the “MIC MRSA” value stood at 32 µg/mL (≈ 36.5 µM). In addition, in [6], the “MIC S.aureus in the presence of 4% bovine serum albumin” value amounted to 128 µg/mL and the “MIC S.aureus” value was determined as 32 µg/mL (≈ 36.5 µM). In data set [7], the “Percent haemolysis at 100µg/mL of compound” value (shortened to “Percent haemolysis”) is given as 8.13%. Moreover, in data set [8], the “MIC S. maltophilia in the presence of 4% bovine serum albumin” value is recorded as above 512 µg/mL and the “MIC S. maltophilia” value is recorded as above 512 µg/mL. In data set [9], the “MIC E. faecium in the presence of 4% bovine serum albumin” value was 256 µg/mL and the “MIC E. faecium” value stood at 64 µg/mL (≈ 73.1 µM). For the same molecule, in data set [10], the “MIC E.coli in the presence of 4% bovine serum albumin” value came to 256 µg/mL and the “MIC E.coli” value amounted to 64 µg/mL (≈ 73.1 µM). Moreover, in data set [11], the “MIC E.coli in the presence of 4% bovine serum albumin” value is listed as 512 µg/mL and the “MIC E.coli” value is 128 µg/mL (≈ 146 µM). In [12], the “MIC E.coli in the presence of 4% bovine serum albumin” value amounted to 256 µg/mL and the “MIC E.coli” value worked out at 64 µg/mL (≈ 73.1 µM).

For the molecule `CCCCCCCCCCCCCCCC[N+](C)(C)C.[Cl-]` [CTAC, Cetyltrimethylammonium chloride, reference compound], in [1], the “MIC E. faecalis in the presence of 4% bovine serum albumin” value is recorded as 32 µg/mL and the “MIC E. faecalis” value amounted to 1 µg/mL. For the same molecule, in data set [2], the “MIC A. baumannii in the presence of 4% bovine serum albumin” value is 512 µg/mL and the “MIC A. baumannii” value is listed as 32 µg/mL. Also, in [3], the “MIC MRSE in the presence of 4% bovine serum albumin” value was 128 µg/mL and the “MIC MRSE” value is listed as 2 µg/mL. Further, in data set [4], the “MIC K.pneumoniae in the presence of 4% bovine serum albumin” value worked out at 512 µg/mL and the “MIC K.pneumoniae” value worked out at 16 µg/mL. In data set [5], the “MIC MRSA in the presence of 4% bovine serum albumin” value was determined as 32 µg/mL and the “MIC MRSA” value was determined as 1 µg/mL. Besides, in data set [6], the “MIC S.aureus in the presence of 4% bovine serum albumin” value was 32 µg/mL and the “MIC S.aureus” value was 1 µg/mL. For the same molecule, in data set [7], the “Percent haemolysis” value is 77% and 77.05%. For the same molecule, in data set [8], the “MIC S. maltophilia in the presence of 4% bovine serum albumin” value is given as 512 µg/mL and the “MIC S. maltophilia” value was determined as 32 µg/mL. In [9], the “MIC E. faecium in the presence of 4% bovine serum albumin” value came out at 64 µg/mL and the “MIC E. faecium” value is reported as 0.5 µg/mL. In addition, in data set [10], the “MIC E.coli in the presence of 4% bovine serum albumin” value turned out to be 512 µg/mL and the “MIC E.coli” value turned out to be 32 µg/mL. Also, in data set [11], the “MIC E.coli in the presence of 4% bovine serum albumin” value is 512 µg/mL and the “MIC E.coli” value was found to be 16 µg/mL. Besides, in data set [12], the “MIC E.coli in the presence of 4% bovine serum albumin” value was found to be 512 µg/mL and the “MIC E.coli” value is on record as 16 µg/mL.

Take `NCCCCN(CC(N)=O)C(=O)CNC(=O)CN(CCCCN)C(=O)CCC(F)(F)C(F)(F)C(F)(F)C(F)(F)C(F)(F)C(F)(F)C(F)(F)C(F)(F)F` [F11-NlysGNlys]: in data set [1], the “MIC E. faecalis in the presence of 4% bovine serum albumin” value is 256 µg/mL and the “MIC E. faecalis” value is listed as 64 µg/mL (≈ 79.5 µM). In addition, in [2], the “MIC A. baumannii in the presence of 4% bovine serum albumin” value is reported as above 512 µg/mL and the “MIC A. baumannii” value is listed as above 512 µg/mL. Also, in [3], the “MIC MRSE in the presence of 4% bovine serum albumin” value was 256 µg/mL and the “MIC MRSE” value amounted to 32 µg/mL (≈ 39.8 µM). Also, in [4], the “MIC K.pneumoniae in the presence of 4% bovine serum albumin” value was above 512 µg/mL and the “MIC K.pneumoniae” value was above 512 µg/mL. Moreover, in data set [5], the “MIC MRSA in the presence of 4% bovine serum albumin” value was 256 µg/mL and the “MIC MRSA” value is given as 64 µg/mL (≈ 79.5 µM). Further, in [6], the “MIC S.aureus in the presence of 4% bovine serum albumin” value was 256 µg/mL and the “MIC S.aureus” value was determined as 32 µg/mL (≈ 39.8 µM). Further, the “Percent haemolysis” value in data set [7] was found to be 4.84%. In data set [8], the “MIC S. maltophilia in the presence of 4% bovine serum albumin” value was above 512 µg/mL and the “MIC S. maltophilia” value is above 512 µg/mL. In addition, in [9], the “MIC E. faecium in the presence of 4% bovine serum albumin” value was found to be 256 µg/mL and the “MIC E. faecium” value is recorded as 64 µg/mL (≈ 79.5 µM). Moreover, in [10], the “MIC E.coli in the presence of 4% bovine serum albumin” value was 512 µg/mL and the “MIC E.coli” value came out at 512 µg/mL (≈ 636 µM). In [11], the “MIC E.coli in the presence of 4% bovine serum albumin” value is above 512 µg/mL and the “MIC E.coli” value is 512 µg/mL (≈ 636 µM). For the same molecule, in [12], the “MIC E.coli in the presence of 4% bovine serum albumin” value is reported as 512 µg/mL and the “MIC E.coli” value is 512 µg/mL (≈ 636 µM).

The values above are taken from article PMC3402541, “Guanidylation and Tail Effects in Cationic Antimicrobial Lipopeptoids” (PLoS ONE, 2012).
